Experimental data: ChEMBL document CHEMBL1201862, “PubChem BioAssay data set” (2004)
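Protocol summary: plate cells (96-well), add compound at 5 concentrations, incubate 48 h, interpolate endpoints linearly. The concentration for 50% growth inhibition is given as GI50.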 Calls of active or inactive are those of the source. No stated cut-off is given here; in the data, active = GI50 up to about 1.1 µM and inactive = higher.

Assays:
Experiment in all cases: NCI-60 cell line screen, 48 h
A498 = test system: A498
COLO 205 = test system: COLO 205
EKVX = test system: EKVX
HCT-116 = test system: HCT-116
HOP-92 = test system: HOP-92
M14 = test system: M14
OVCAR-3 = test system: OVCAR-3
OVCAR-8 = test system: OVCAR-8
RPMI-8226 = test system: RPMI-8226
RXF 393 = test system: RXF 393
SF-295 = test system: SF-295
SK-MEL-28 = test system: SK-MEL-28
SK-MEL-2 = test system: SK-MEL-2
SN12C = test system: SN12C
SNB-19 = test system: SNB-19
SW-620 = test system: SW-620
U-251 = test system: U-251
UACC-257 = test system: UACC-257
UACC-62 = test system: UACC-62
UO-31 = test system: UO-31

| SMILES | GI50 (A498) | GI50 (COLO 205) | GI50 (EKVX) | GI50 (HCT-116) | GI50 (HOP-92) | GI50 (M14) | GI50 (OVCAR-3) | GI50 (OVCAR-8) | GI50 (RPMI-8226) | GI50 (RXF 393) | GI50 (SF-295) | GI50 (SK-MEL-28) | GI50 (SK-MEL-2) | GI50 (SN12C) | GI50 (SNB-19) | GI50 (SW-620) | GI50 (U-251) | GI50 (UACC-257) | GI50 (UACC-62) | GI50 (UO-31) |
| --- | --- | --- | --- | --- | --- | --- | --- | --- | --- | --- | --- | --- | --- | --- | --- | --- | --- | --- | --- | --- |
| O=C(CCC(=O)Nc1ccccc1C(F)(F)F)N/N=C1\C(=N\NC(=O)CCC(=O)Nc2ccccc2C(F)(F)F)C(c2ccc3c(c2)OCO3)Oc2ccccc21 (stereo not given) | 51.3 µM (inactive) | > 100 µM (inactive) | 9.79 µM (inactive) | 5.9 µM (inactive) | 17.9 µM (inactive) | > 100 µM (inactive) | 3.43 µM (inactive) | 7.87 µM (inactive) | 4.44 µM (inactive) | 11.8 µM (inactive) | 8.32 µM (inactive) | > 100 µM (inactive) | > 31.9 µM (inactive) | 6.46 µM (inactive) | 13.2 µM (inactive) | 6.22 µM (inactive) | 4.97 µM (inactive) | > 100 µM (inactive) | 5.46 µM (inactive) | 5.64 µM (inactive) |
| O=c1cc(N2CCCC2)[nH]c(=O)n1-c1cccc(C(F)(F)F)c1 | > 100 µM (inactive) | > 100 µM (inactive) | > 100 µM (inactive) | > 100 µM (inactive) | > 100 µM (inactive) | > 100 µM (inactive) | > 100 µM (inactive) | > 100 µM (inactive) | 76.4 µM (inactive) | > 100 µM (inactive) | > 100 µM (inactive) | – | > 100 µM (inactive) | > 100 µM (inactive) | > 100 µM (inactive) | > 100 µM (inactive) | > 100 µM (inactive) | > 100 µM (inactive) | > 100 µM (inactive) | – |
| O=C(O)c1nc2ccc(C(F)(F)F)cc2[nH]c1=O | > 100 µM (inactive) | > 100 µM (inactive) | > 100 µM (inactive) | > 100 µM (inactive) | > 100 µM (inactive) | > 100 µM (inactive) | > 100 µM (inactive) | > 100 µM (inactive) | > 100 µM (inactive) | > 100 µM (inactive) | > 100 µM (inactive) | > 100 µM (inactive) | > 100 µM (inactive) | > 100 µM (inactive) | > 100 µM (inactive) | > 100 µM (inactive) | > 100 µM (inactive) | > 100 µM (inactive) | > 100 µM (inactive) | > 100 µM (inactive) |
| O=NN(CCCl)C(=O)NC1CCSc2ccccc21 (stereo not given) | > 100 µM (inactive) | > 100 µM (inactive) | 28.3 µM (inactive) | > 100 µM (inactive) | > 100 µM (inactive) | – | > 100 µM (inactive) | > 100 µM (inactive) | > 61.4 µM (inactive) | > 100 µM (inactive) | 57.8 µM (inactive) | > 58.2 µM (inactive) | > 100 µM (inactive) | > 100 µM (inactive) | > 90.2 µM (inactive) | > 100 µM (inactive) | 58.2 µM (inactive) | > 100 µM (inactive) | 25 µM (inactive) | > 91.2 µM (inactive) |
| [N-]=[N+]=CC(=O)c1ccccc1C#CCCc1ccccc1 | 28.4 µM (inactive) | 32 µM (inactive) | 24.5 µM (inactive) | 16.6 µM (inactive) | 18.9 µM (inactive) | 38.8 µM (inactive) | 20.2 µM (inactive) | 27.8 µM (inactive) | 14 µM (inactive) | 30 µM (inactive) | 40.4 µM (inactive) | 48.2 µM (inactive) | 27.2 µM (inactive) | 35.5 µM (inactive) | 38.3 µM (inactive) | 32.7 µM (inactive) | 10.2 µM (inactive) | 23.9 µM (inactive) | 18.6 µM (inactive) | 22.7 µM (inactive) |
| COC(=O)c1c(-c2ccccc2)c2sc3ccccc3n2c1N | 30.5 µM (inactive) | 28.2 µM (inactive) | 58.3 µM (inactive) | 28.6 µM (inactive) | 29.1 µM (inactive) | 76.6 µM (inactive) | 48.9 µM (inactive) | 58.3 µM (inactive) | > 100 µM (inactive) | 19.4 µM (inactive) | 34.1 µM (inactive) | 66.1 µM (inactive) | 32.9 µM (inactive) | 33 µM (inactive) | 74.3 µM (inactive) | – | 59.4 µM (inactive) | > 100 µM (inactive) | > 100 µM (inactive) | 85.9 µM (inactive) |
| Cc1c2ccnc(-c3ccccc3)c2cc2c1[nH]c1ccccc12 | 0.219 µM (active) | 0.735 µM (active) | 2.92 µM (inactive) | 2.12 µM (inactive) | 1.25 µM (inactive) | – | 3.4 µM (inactive) | 1.13 µM (inactive) | 2.77 µM (inactive) | 2.42 µM (inactive) | 0.879 µM (active) | 4.29 µM (inactive) | 2.62 µM (inactive) | 2.99 µM (inactive) | 3.66 µM (inactive) | 2.48 µM (inactive) | 0.873 µM (active) | 2.7 µM (inactive) | 1.09 µM (active) | 1.33 µM (inactive) |
